# “Also recorded” adds a separate entry of the source. Where two headings read alike, the source gives them in different places.
# Experiments:
# IKZF1 (Ikaros) = target: T1, IKZF1 (Ikaros) (Homo sapiens, UniProt Q13422); test: IKZF1 degradation in vitro (FIG. 1); type: cell-based
# T1 construct: ProLabel; expressed in transfected cells; host or cells: HEK293T
# Description: (§1) Although the specific transcriptional targets of IKZF2 remain to be defined, IKZF2 binds to and represses transcription from the IL-2 promoter region (Baine 2013). […] Finally, an in vitro assay recapitulating hallmarks of T cell dysfunction/exhaustion, by sequential TCR stimulation of isolated primary human T cells, was used to test the hypothesis that […] would rescue the exhausted phenotype and enhance Teff cell activity. […] In addition to IKZF1, other known cereblon substrates including translation termination factor G1 to S phase transition 1 (GSPT1) are not degraded by I-57 (FIG. 1).
# GSPT1 = target: T2, GSPT1 (Homo sapiens, UniProt P15170); test: GSPT1 degradation in vitro (FIG. 1); type: cell-based
# T2 construct: prolabel (ProLabel enzyme-fragment tag); expressed in transfected cells; host or cells: HEK293T
# Description: as §1
# IKZF4 = target: T3, IKZF4 (Homo sapiens, UniProt Q96SW2+Q9H2S9); test: IKZF4 degradation in vitro (FIG. 1); type: cell-based; conditions: relative to IKZF2
# T3 construct: prolabel (ProLabel enzyme-fragment tag); expressed in transfected cells; host or cells: HEK293T
# Description: as §1
# IKZF2 [1] = test: IKZF2 degradation in primary cynomolgus monkey PBMCs; type: cell-based; conditions: primary monkey PBMCs in vitro
# Description: as §1
# I-57 mediated degradation of IKZF2 was assessed in primary PBMCs obtained from rabbit, dog, pig, cynomolgus monkey, and human, and in primary splenocytes of mouse and rat. […] Species-specificity due to species specific alteration CRBN primary structure have previously been described with other compounds known to interact with the CRBN ubiquitin ligase complex to elicit protein specific degradation (Krönke et al, 2015).
# primary human Tregs = test: Suppression of Teff proliferation by in vitro expanded primary human Tregs; type: cell-based
# [2] = tested on: isolated primary human T cells; test: In vitro T cell dysfunction/exhaustion assay (sequential TCR stimulation); type: cell-based
# Description: as §1
# [3] = Single oral dose PK in cynomolgus monkey; type: in vivo; conditions: for Cmax / AUC(0-t): plasma; for Cmax / AUC(0-t) / AUC24 h/Dose / Cmax/Dose: unbound, n = 3, mean ± SD; for AUC(0-t): read-out: AUC24 h
# Experimental: The PK/PD relationship of I-57 was examined in cynomolgus monkeys after a single oral dose of 0.01, 0.1 or 1 mg/kg. I-57 plasma concentration and IKZF2 expression (as determined by flow cytometry) in FOXP3+ T cells from PBMCs were determined (FIG. 4 and FIG. 5).
# plasma protein = test: Plasma protein binding in vitro, rat; type: in vitro ADME
# Description: The binding to plasma protein of I-57 in vitro was moderate in all species, with an observed difference between rodents (73% in mouse, 76% in rat) and non-rodents (52% in dog and monkey, 54% in human). Blood-to-plasma ratios were in the range of 0.7-1.8 (human 1.1-1.3). […] Based on results with non-radiolabeled I-57 in the dog, a significant amount of unchanged I-57 was renally eliminated (˜20% of dose).
# CYP2D6 = CYP2D6 (Homo sapiens, UniProt P10635); test: CYP inhibition: CYP2D6; type: in vitro ADME
# CYP1A2 = CYP1A2 (Homo sapiens, UniProt P05177); test: CYP inhibition: CYP1A2; type: in vitro ADME; conditions: I-57 concentrations of up to 100 μM
# [4] = Toxicology in rats (5-day and 4-week GLP studies); type: in vivo
# Description: The non-clinical safety profile of I-57 was established in vitro, and in vivo in rats and cynomolgus monkeys in studies up to 4-weeks duration. Based on the outcome of these studies, QTc interval prolongation was identified as the principal safety signal for I-57. There were other toxicities such as diarrhea and vomiting in monkeys, and mortality, clinical signs and target organ toxicities in rats; however, these occurred at exposures far above those expected to result in clinical activity.
# Clinical signs, decreases in body weight and food consumption, and clinical pathology changes reflecting inflammation, renal and liver injury, and stress were generally evident in the pre-terminal animals. Kidney toxicity was evident in rats at doses >100 mg/kg/day and was characterized by increased weight, hematuria, proteinuria, with or without increased blood urea and creatinine, degeneration, regeneration and inflammation at 300 mg/kg/day.
# IKZF2 [5] = target: IKZF2 (Homo sapiens, UniProt Q96SW2+Q9UKS7); test: IKZF2 in human Tregs (tumor, blood) by flow cytometry, hPBMC AdT model; type: in vivo, NSG mice with human PBMCs; set-up: endogenous in cells; host or cells: human lymphocytes (CD4+FOXP3+ Tregs; total tumor-infiltrating lymphocytes) from healthy-donor PBMC transferred into NSG mice
# Experimental: The PK/PD relationship of I-57 was examined in the hPBMC AdT model system. Human PBMCs were adoptively transferred into female NSG mice harboring established MDA-MB231 xenografts (FIG. 6). This model was selected based on the observation that IKZF2 positive Tregs (CD4+FOXP3+) were readily identifiable in peripheral blood and infiltrated in the tumor xenografts.
# The impact of I-57 on IKZF2 protein expression in human Tregs in the periphery and infiltrated in MDA-MB231 xenografts was assessed via flow cytometry at multiple time points after the last I-57 dose. […] Maximum effects were generally observed 4-16 h post dose. At a given dose level, the magnitude and duration of IKZF2 reduction in Tregs was generally consistent across tissues (tumor, spleen and blood).
# Based on the data from this hPBMC AdT mouse model, unbound I-57 (73% percent plasma binding in the mouse) exposures (AUCinf) of 7, 30, 157 and 3474 ng*h/mL are required to achieve the reduction of IKZF2 positivity (via flow cytometry) in tumor Tregs by 31, 43, 56, and 75%, respectively. The relationship between the magnitude and duration of I-57-mediated IKZF2 degradation and subsequent modulation of therapeutically relevant downstream biology is not yet well understood.
# IKZF2 (Homo sapiens, UniProt Q96SW2+Q9UKS7), sequence (Q9UKS7 whole entry): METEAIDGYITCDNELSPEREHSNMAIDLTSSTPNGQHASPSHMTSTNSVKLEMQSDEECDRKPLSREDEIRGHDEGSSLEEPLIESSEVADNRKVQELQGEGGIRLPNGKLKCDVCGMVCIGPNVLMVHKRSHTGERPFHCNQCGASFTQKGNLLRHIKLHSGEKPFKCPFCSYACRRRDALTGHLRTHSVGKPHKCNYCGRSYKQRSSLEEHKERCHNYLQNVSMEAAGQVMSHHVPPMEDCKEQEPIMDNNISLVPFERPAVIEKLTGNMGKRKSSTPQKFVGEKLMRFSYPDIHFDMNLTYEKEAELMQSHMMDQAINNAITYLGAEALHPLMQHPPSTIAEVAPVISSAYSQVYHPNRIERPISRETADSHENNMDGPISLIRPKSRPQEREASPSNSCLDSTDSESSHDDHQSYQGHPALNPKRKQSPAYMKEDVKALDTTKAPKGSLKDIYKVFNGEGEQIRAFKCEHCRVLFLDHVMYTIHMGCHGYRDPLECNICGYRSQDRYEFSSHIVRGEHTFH
# IKZF2 (Homo sapiens, UniProt Q96SW2+Q9UKS7), sequence (Q96SW2 whole entry): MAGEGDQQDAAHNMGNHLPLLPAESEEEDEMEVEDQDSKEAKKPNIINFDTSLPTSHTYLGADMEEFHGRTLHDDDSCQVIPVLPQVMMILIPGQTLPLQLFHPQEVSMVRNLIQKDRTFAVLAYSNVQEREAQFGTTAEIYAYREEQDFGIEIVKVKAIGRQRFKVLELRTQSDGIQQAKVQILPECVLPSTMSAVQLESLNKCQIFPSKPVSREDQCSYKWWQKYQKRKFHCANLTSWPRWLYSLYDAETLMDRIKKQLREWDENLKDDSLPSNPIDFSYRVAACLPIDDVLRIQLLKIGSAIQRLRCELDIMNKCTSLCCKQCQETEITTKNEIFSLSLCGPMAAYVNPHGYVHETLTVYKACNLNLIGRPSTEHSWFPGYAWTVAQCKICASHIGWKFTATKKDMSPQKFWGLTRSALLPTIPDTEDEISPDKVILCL
# IKZF2 (Homo sapiens, UniProt Q96SW2+Q9UKS7), sequence (Q16531 whole entry partner): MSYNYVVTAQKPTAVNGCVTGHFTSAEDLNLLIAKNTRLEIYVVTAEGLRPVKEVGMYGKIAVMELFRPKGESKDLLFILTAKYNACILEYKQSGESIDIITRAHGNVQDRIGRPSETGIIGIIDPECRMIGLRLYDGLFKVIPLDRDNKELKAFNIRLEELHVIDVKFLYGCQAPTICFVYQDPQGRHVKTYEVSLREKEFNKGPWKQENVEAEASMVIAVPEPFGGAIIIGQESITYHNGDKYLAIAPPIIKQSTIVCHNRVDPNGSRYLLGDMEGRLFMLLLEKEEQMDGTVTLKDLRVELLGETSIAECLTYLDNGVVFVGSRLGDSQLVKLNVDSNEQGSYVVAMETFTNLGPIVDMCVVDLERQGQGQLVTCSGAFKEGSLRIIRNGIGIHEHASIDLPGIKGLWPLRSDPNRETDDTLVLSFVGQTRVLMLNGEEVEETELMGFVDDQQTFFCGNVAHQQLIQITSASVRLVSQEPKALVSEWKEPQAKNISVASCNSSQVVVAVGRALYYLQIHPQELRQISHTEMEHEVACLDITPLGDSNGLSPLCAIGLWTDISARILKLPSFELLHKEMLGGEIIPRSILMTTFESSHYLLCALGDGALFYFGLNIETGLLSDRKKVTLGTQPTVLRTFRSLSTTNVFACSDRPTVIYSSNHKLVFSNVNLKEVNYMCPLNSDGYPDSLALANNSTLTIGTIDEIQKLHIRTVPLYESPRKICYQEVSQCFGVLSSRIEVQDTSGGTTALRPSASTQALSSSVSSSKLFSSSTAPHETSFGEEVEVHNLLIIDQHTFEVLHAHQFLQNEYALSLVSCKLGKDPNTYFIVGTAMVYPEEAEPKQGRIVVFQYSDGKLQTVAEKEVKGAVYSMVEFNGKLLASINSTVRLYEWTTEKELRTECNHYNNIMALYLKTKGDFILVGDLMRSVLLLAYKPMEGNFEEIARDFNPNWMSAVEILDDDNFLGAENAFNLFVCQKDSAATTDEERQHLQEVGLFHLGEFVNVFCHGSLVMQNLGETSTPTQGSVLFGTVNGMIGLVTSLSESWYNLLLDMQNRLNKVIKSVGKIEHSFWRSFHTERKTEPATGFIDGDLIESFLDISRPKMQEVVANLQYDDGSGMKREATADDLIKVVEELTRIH
# CYP1A2, sequence (P05177 whole entry): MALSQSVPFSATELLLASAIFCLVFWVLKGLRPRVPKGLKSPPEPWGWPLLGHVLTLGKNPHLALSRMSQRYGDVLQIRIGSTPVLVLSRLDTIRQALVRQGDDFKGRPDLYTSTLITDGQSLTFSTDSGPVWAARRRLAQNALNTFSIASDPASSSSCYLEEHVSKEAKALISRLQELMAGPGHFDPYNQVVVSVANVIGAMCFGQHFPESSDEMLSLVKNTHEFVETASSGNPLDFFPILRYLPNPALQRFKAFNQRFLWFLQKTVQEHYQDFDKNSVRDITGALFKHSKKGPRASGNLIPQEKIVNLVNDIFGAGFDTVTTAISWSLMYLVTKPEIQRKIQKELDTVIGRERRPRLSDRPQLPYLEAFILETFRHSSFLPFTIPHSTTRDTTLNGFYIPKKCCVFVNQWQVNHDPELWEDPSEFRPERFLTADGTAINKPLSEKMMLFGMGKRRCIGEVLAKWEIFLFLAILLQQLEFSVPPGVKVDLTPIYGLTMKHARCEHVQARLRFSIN
# T3 sequence (Q9H2S9 whole entry, the tested form may be a part): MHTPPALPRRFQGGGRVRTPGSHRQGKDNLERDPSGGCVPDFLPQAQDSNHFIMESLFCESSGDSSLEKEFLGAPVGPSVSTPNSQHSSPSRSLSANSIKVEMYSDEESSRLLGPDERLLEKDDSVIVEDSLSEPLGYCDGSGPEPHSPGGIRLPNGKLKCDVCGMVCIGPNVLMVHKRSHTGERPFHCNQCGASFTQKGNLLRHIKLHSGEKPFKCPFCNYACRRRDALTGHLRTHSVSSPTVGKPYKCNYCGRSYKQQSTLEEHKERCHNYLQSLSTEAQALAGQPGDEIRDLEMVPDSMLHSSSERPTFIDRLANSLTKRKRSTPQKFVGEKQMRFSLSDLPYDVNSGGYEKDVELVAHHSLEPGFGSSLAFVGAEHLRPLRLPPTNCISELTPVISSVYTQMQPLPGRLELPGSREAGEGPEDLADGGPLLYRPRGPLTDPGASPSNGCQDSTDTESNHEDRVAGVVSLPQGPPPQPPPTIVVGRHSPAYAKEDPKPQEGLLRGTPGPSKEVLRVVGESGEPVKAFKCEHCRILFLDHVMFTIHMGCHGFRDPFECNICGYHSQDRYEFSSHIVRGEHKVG
# T3 sequence (Q96SW2 whole entry, the tested form may be a part): as the sequence (Q96SW2 whole entry) above
# T3 sequence (Q16531 whole entry partner, the tested form may be a part): as the sequence (Q16531 whole entry partner) above
# CYP2D6, sequence (P10635 whole entry): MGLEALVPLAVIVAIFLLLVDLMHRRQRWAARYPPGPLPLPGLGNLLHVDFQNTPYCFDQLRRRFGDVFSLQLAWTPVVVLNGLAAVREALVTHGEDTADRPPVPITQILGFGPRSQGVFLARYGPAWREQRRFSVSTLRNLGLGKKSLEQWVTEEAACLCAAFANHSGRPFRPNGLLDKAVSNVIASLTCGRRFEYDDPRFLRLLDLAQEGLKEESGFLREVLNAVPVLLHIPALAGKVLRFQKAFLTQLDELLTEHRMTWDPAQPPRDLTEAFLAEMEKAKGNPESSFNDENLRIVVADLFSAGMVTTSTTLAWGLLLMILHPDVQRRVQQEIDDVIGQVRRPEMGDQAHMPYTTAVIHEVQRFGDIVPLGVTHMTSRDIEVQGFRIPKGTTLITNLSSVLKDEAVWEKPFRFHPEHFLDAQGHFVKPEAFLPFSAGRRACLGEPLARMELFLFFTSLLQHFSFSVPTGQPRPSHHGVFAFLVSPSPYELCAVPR
# T1 sequence (Q96SW2 whole entry partner): as the sequence (Q96SW2 whole entry) above
# T1 sequence (Q16531 whole entry partner): as the sequence (Q16531 whole entry partner) above
# T1 sequence (Q13422 whole entry): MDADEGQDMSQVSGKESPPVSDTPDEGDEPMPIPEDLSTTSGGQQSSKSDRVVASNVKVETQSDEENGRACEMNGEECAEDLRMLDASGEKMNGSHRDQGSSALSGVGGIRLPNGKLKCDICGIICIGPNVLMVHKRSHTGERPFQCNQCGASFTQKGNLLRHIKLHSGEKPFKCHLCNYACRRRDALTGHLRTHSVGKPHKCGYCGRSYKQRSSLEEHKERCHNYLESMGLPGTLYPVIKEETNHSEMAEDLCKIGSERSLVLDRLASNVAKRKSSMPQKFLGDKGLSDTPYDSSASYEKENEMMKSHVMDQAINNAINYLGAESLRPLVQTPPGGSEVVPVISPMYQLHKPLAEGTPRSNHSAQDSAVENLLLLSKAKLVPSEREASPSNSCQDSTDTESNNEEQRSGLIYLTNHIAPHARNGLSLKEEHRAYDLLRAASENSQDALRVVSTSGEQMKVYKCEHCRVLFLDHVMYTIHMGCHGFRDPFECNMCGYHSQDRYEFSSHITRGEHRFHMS
# T2 sequence (Q96SW2 whole entry partner, the tested form may be a part): as the sequence (Q96SW2 whole entry) above
# T2 sequence (Q16531 whole entry partner, the tested form may be a part): as the sequence (Q16531 whole entry partner) above
# T2 sequence (P15170 whole entry, the tested form may be a part): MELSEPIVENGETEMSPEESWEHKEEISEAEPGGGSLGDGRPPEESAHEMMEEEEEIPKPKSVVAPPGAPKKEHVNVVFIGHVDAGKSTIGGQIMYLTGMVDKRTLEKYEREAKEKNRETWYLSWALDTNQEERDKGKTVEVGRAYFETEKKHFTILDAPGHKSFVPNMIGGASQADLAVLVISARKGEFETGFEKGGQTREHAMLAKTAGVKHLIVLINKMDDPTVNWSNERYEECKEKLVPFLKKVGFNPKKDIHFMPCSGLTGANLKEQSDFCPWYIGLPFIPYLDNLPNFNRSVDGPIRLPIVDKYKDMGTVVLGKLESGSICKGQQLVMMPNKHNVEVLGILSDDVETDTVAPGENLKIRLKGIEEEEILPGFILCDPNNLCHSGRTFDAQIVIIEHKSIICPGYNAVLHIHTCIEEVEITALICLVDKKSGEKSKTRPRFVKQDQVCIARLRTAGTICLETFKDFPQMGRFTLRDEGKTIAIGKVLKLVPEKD
compound,measurement,setting,value
"O=C1CCC(N2Cc3cc(C4CCN(Cc5ccccc5)CC4)ccc3C2=O)C(=O)N1 (stereo not shown) [Compound I-57, 3-(5-(1-benzylpiperidin-4-yl)-1-oxoisoindolin-2-yl)piperidine-2,6-dione]",degradation of IKZF1,IKZF1 (Ikaros),not degraded
same,degradation of GSPT1,GSPT1,not degraded
same,degradation of IKZF4,IKZF4,less potency than IKZF2
same,degradation of IKZF2,IKZF2 [1],potent degradation; also recorded: Degradation was observed
same,IKZF2 protein level in Treg cells,primary human Tregs; primary human Tregs expanded in vitro,reduced proportionally to the I-57 dose
same,capacity of Tregs to suppress Teff proliferation,primary human Tregs; primary human Tregs expanded in vitro in the presence of I-57,reduced capacity to suppress Teff proliferation
same,IKZF2 degradation,[2],degraded IKZF2 in a dose-dependent manner
same,interferon gamma production by IKZF2 positive cells,[2],concomitant increase
same,Cmax,[3]; single oral dose 0.01 mg/kg,2.11 ± 0.69 ng/mL
same,AUC(0-t),[3]; single oral dose 0.01 mg/kg,14.1 ± 4.72 ng·h/mL
same,Cmax,[3]; single oral dose 0.1 mg/kg,13.4 ± 2.77 ng/mL
same,AUC(0-t),[3]; single oral dose 0.1 mg/kg,102 ± 13.2 ng·h/mL
same,Cmax,[3]; single oral dose 1 mg/kg,102 ± 45.3 ng/mL
same,AUC(0-t),[3]; single oral dose 1 mg/kg,610 ± 236 ng·h/mL
same,dose proportionality of exposure,"[3]; single oral dose 0.01, 0.1 or 1 mg/kg",slightly less than dose proportional
same,AUC24 h/Dose,[3]; single oral dose 0.01 mg/kg,1410 ± 472 (ng · h/mL)/(mg/kg)
same,Cmax/Dose,[3]; single oral dose 0.01 mg/kg,211 ± 69.1 (ng/mL)/(mg/kg)
same,AUC24 h/Dose,[3]; single oral dose 0.1 mg/kg,1020 ± 136 (ng · h/mL)/(mg/kg)
same,Cmax/Dose,[3]; single oral dose 0.1 mg/kg,134 ± 27.7 (ng/mL)/(mg/kg)
same,AUC24 h/Dose,[3]; single oral dose 1 mg/kg,610 ± 236 (ng · h/mL)/(mg/kg)
same,Cmax/Dose,[3]; single oral dose 1 mg/kg,102 ± 45.3 (ng/mL)/(mg/kg)
same,binding to plasma protein,plasma protein,76%
same,IC50,CYP2D6,~65 µM
same,inhibition of CYP1A2,CYP1A2,very little and no inhibition
same,reversibility of findings,"[4]; rat, in vivo",fully reversed or showed ongoing recovery
same,stomach findings,"[4]; rat, in vivo, 300 mg/kg/day","mucosal hyperplasia, inflammation and degeneration in the stomach"
same,urinary bladder findings,"[4]; rat, in vivo, 300 mg/kg/day",Degenerative changes were present in the urinary bladder
same,dose at which kidney toxicity was evident,[4]; rats,> 100 mg/kg/day
same,dose at which mortality occurred,"[4]; rats, females",> 300 mg/kg/day
same,dose at which mortality occurred,"[4]; rats, males",1000 mg/kg
same,genotoxic potential,Genotoxic potential,no genotoxic or phototoxic potential
same,reduction of IKZF2 positivity in tumor Tregs,"IKZF2 [5]; flow cytometry, unbound exposure (AUCinf) 7 ng*h/mL",31%
same,reduction of IKZF2 positivity in tumor Tregs,"IKZF2 [5]; flow cytometry, unbound exposure (AUCinf) 30 ng*h/mL",43%
same,reduction of IKZF2 positivity in tumor Tregs,"IKZF2 [5]; flow cytometry, unbound exposure (AUCinf) 157 ng*h/mL",56%
same,reduction of IKZF2 positivity in tumor Tregs,"IKZF2 [5]; flow cytometry, unbound exposure (AUCinf) 3474 ng*h/mL",75%
same,time of maximum effects on IKZF2 positive Tregs,"IKZF2 [5]; post dose, hPBMC AdT model",4 to 16 h
same,IKZF2 degradation (reduction of the percentage of IKZF2 positive Tregs),"IKZF2 [5]; tumor and peripheral blood, after 14 daily doses, flow cytometry",robust dose and exposure-dependent IKZF2 degradation

# Reference: US20230321067A1, “DOSING REGIMEN COMPRISING 3-(1-OXOISOINDOLIN-2-YL)PIPERIDINE-2,6-DIONE DERIVATIVES” (Novartis AG, priority 2020, published 2023)
